Data on 12 compounds can be found in patent US20200060276A1, “THIAZOLE COMPOUND AND HERBICIDE” (OAT Agrio Co., Ltd., priority 2017, published 2020).

Holding throughout (format): in vivo
The subject of experiment [1] is Echinochloa crus-galli (L.) P. Beauv. var. formosensis Ohwi. The experiment is described as follows: Test for Herbicidal Effect in Flooding Treatment (#1), ECHDG. The following applies: flooding treatment at seeding, dose 2 kg/ha, visual observation on day 21. The method in brief: (§1)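 Sieved soil in cups was flooded and left 24 h before weed seeds were sown. Compounds in acetone, diluted with Tween 80-containing water, were dropped over the whole surface at 2 kg/ha. After 21 days in a glasshouse, growth inhibition was scored visually from 0 (<10%) to 5 (≥90% or complete withering).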

In the next experiment the test system is Monochoria vaginalis. The experiment is described as follows: Test for Herbicidal Effect in Flooding Treatment (#1), MONVA. The conditions noted are these: flooding treatment at seeding, dose 2 kg/ha, visual observation on day 21. The method in brief: as §1
In the next experiment the test system is Scirpus juncoides. The experiment is described as follows: Test for Herbicidal Effect in Flooding Treatment (#1), SCIJU. The conditions noted are these: flooding treatment at seeding, dose 2 kg/ha, visual observation on day 21. The method in brief: as §1
The next experiment concerns Cyperus microiria. The experiment is described as follows: Test for Herbicidal Effect in Flooding Treatment (#1), CYMIC. The conditions noted are these: flooding treatment at seeding, dose 2 kg/ha, visual observation on day 21. Summed up:
as §1

Experiment [2] has as its system Echinochloa crus-galli (L.) P. Beauv. var. formosensis Ohwi. The experiment is described as follows: Test for Herbicidal Effect in Flooding Treatment (#2), ECHDG at 2-2.5 leaf stage. The conditions noted are these: for ECHDG (2-2.5L) #2 herbicidal effect (growth inhibition grade): flooding treatment at 2-2.5 leaf stage, dose 0.2 kg/ha, visual observation on day 21; for inhibition at 200 g/ha: Echinochloa crus-galli, 504 h, flooding treatment (#2), ECHDG at 2-2.5 leaf stage, dose of 0.2 kg/ha, day 21, visual observation, read-out: growth inhibition effect. Summed up: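 Flooded muddy soil was seeded with the weed, and at 2–2.5 leaf stage compound in acetone/Tween 80 water was dropped on the water surface at 0.2 kg/ha. Plants were kept in a glasshouse and scored visually on day 21 from 0 (<10% growth inhibition) to 5 (≥90% or complete withering).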

A further experiment deals with Digitaria ciliaris. The experiment is described as follows: Test for Herbicidal Effect in Soil Treatment (#3). The conditions noted are these: 504 h, dose of 2 kg/ha, day 21, visual observation, read-out: growth inhibition effect. From the text: 0: Growth inhibition effect is less than 10%. 1: Growth inhibition effect is equal to or greater than 10%, and less than 30%. 2; Growth inhibition effect is equal to or greater than 30%, and less than 50%. 3: Growth inhibition effect equal to or greater than 50%, and less than 70%. 4: Growth inhibition effect is equal to or greater than 70%, and less than 90%. 5: Growth inhibition effect is equal to or greater than 90%, or complete withering is achieved. (#3) Test for Herbicidal Effect in Soil Treatment: Styrol cups each having an opening diameter of 8 cm (about 52 cm^2) were respectively filled with soil (45 ml) which had been passed through a sieve (2 mm). Water (about 115 ml) was added. Thereafter, Digitaria ciliaris was seeded. Each of the compounds of the present invention was dissolved in acetone, and the obtained product was then diluted with water containing Tween 80°. Each of the resultant chemical solutions was dropped on the entire surface of an associated one of treatment sections, so that each section was treated with 1 ml of the respective chemical solution (a dose of 2 kg/ha). After the treatment, the plants were grown in a glasshouse. On day 21, a survey was conducted on the herbicidal activity by visual observation, and evaluation was made according to the following criteria. The herbicidal activity of the following comparative compounds A and B (the compounds disclosed Japanese Unexamined Patent Publication No. 2003-096059) were evaluated.

Bounds are passed on as bounds.

For orientation: inhibition means how much of the control response was suppressed.

In the case of `CCOc1ccc(CS(=O)(=O)c2ncc(Cl)s2)c(C(F)(F)F)c1` [Compound 1C-94], the “ECHDG #1 herbicidal effect (growth inhibition grade)” value in experiment [1] was 5 (Growth inhibition effect is equal to or greater than 90%, or complete withering is achieved). For the same compound, the “MONVA #1 herbicidal effect (growth inhibition grade)” value with Monochoria vaginalis is 5 (Growth inhibition effect is equal to or greater than 90%, or complete withering is achieved). Moreover, the “SCIJU #1 herbicidal effect (growth inhibition grade)” value with Scirpus juncoides is 5 (Growth inhibition effect is equal to or greater than 90%, or complete withering is achieved). In addition, the “CYMIC #1 herbicidal effect (growth inhibition grade)” value in the experiment on Cyperus microiria is listed as 5 (Growth inhibition effect is equal to or greater than 90%, or complete withering is achieved). Besides, the “ECHDG (2-2.5L) #2 herbicidal effect (growth inhibition grade)” value in experiment [2] is listed as 5 (Growth inhibition effect is equal to or greater than 90%, or complete withering is achieved).

As to `CCOc1ccc(CS(=O)(=O)c2ncc(Cl)s2)cc1C(F)(F)F` [Compound 1C-98], the “ECHDG #1 herbicidal effect (growth inhibition grade)” value in experiment [1] is 5 (Growth inhibition effect is equal to or greater than 90%, or complete withering is achieved). The “MONVA #1 herbicidal effect (growth inhibition grade)” value in the experiment on Monochoria vaginalis is listed as 5 (Growth inhibition effect is equal to or greater than 90%, or complete withering is achieved). In addition, in the experiment with Scirpus juncoides, the “SCIJU #1 herbicidal effect (growth inhibition grade)” value is recorded as 5 (Growth inhibition effect is equal to or greater than 90%, or complete withering is achieved). Moreover, the “CYMIC #1 herbicidal effect (growth inhibition grade)” value in the experiment on Cyperus microiria is 5 (Growth inhibition effect is equal to or greater than 90%, or complete withering is achieved). Moreover, the “ECHDG (2-2.5L) #2 herbicidal effect (growth inhibition grade)” value in experiment [2] was 1 (Growth inhibition effect is equal to or greater than 10%, and less than 30%).

Turning to `CCOc1ccc(CS(=O)(=O)c2ncc(Cl)s2)c(F)c1F` [Compound 1C-99], the “ECHDG #1 herbicidal effect (growth inhibition grade)” value in experiment [1] is given as 5 (Growth inhibition effect is equal to or greater than 90%, or complete withering is achieved). Further, the “MONVA #1 herbicidal effect (growth inhibition grade)” value in the experiment on Monochoria vaginalis is 5 (Growth inhibition effect is equal to or greater than 90%, or complete withering is achieved). For the same compound, the “SCIJU #1 herbicidal effect (growth inhibition grade)” value in the experiment on Scirpus juncoides is 5 (Growth inhibition effect is equal to or greater than 90%, or complete withering is achieved). For the same compound, in the experiment with Cyperus microiria, the “CYMIC #1 herbicidal effect (growth inhibition grade)” value was 5 (Growth inhibition effect is equal to or greater than 90%, or complete withering is achieved). Moreover, the “ECHDG (2-2.5L) #2 herbicidal effect (growth inhibition grade)” value in experiment [2] is given as 5 (Growth inhibition effect is equal to or greater than 90%, or complete withering is achieved).

On to `CCOc1ccc(CS(=O)(=O)c2ncc(Cl)s2)c(Cl)c1Cl` [Compound 1C-100], for which the “ECHDG #1 herbicidal effect (growth inhibition grade)” value in experiment [1] is on record as 5 (Growth inhibition effect is equal to or greater than 90%, or complete withering is achieved). For the same compound, in the experiment on Monochoria vaginalis, the “MONVA #1 herbicidal effect (growth inhibition grade)” value is recorded as 5 (Growth inhibition effect is equal to or greater than 90%, or complete withering is achieved). Moreover, the “SCIJU #1 herbicidal effect (growth inhibition grade)” value in the experiment on Scirpus juncoides is listed as 5 (Growth inhibition effect is equal to or greater than 90%, or complete withering is achieved). Further, the “CYMIC #1 herbicidal effect (growth inhibition grade)” value in the experiment on Cyperus microiria is on record as 5 (Growth inhibition effect is equal to or greater than 90%, or complete withering is achieved). The “ECHDG (2-2.5L) #2 herbicidal effect (growth inhibition grade)” value in experiment [2] is given as 5 (Growth inhibition effect is equal to or greater than 90%, or complete withering is achieved).

Take `CCOc1c(F)cc(CS(=O)(=O)c2ncc(Cl)s2)cc1F` [Compound 1C-104]: the “ECHDG #1 herbicidal effect (growth inhibition grade)” value in experiment [1] was 5 (Growth inhibition effect is equal to or greater than 90%, or complete withering is achieved). Moreover, in the experiment with Monochoria vaginalis, the “MONVA #1 herbicidal effect (growth inhibition grade)” value is 5 (Growth inhibition effect is equal to or greater than 90%, or complete withering is achieved). Moreover, the “SCIJU #1 herbicidal effect (growth inhibition grade)” value with Scirpus juncoides is given as 5 (Growth inhibition effect is equal to or greater than 90%, or complete withering is achieved). Moreover, in the experiment with Cyperus microiria, the “CYMIC #1 herbicidal effect (growth inhibition grade)” value was 5 (Growth inhibition effect is equal to or greater than 90%, or complete withering is achieved). The “ECHDG (2-2.5L) #2 herbicidal effect (growth inhibition grade)” value in experiment [2] is 1 (Growth inhibition effect is equal to or greater than 10%, and less than 30%).

On to `CCOc1c(F)cc(CS(=O)(=O)c2ncc(Cl)s2)cc1Cl` [Compound 1C-105], for which the “ECHDG #1 herbicidal effect (growth inhibition grade)” value in experiment [1] is 5 (Growth inhibition effect is equal to or greater than 90%, or complete withering is achieved). The “MONVA #1 herbicidal effect (growth inhibition grade)” value in the experiment with Monochoria vaginalis was 5 (Growth inhibition effect is equal to or greater than 90%, or complete withering is achieved). Also, the “SCIJU #1 herbicidal effect (growth inhibition grade)” value in the experiment on Scirpus juncoides was 5 (Growth inhibition effect is equal to or greater than 90%, or complete withering is achieved). In the experiment with Cyperus microiria, the “CYMIC #1 herbicidal effect (growth inhibition grade)” value was 5 (Growth inhibition effect is equal to or greater than 90%, or complete withering is achieved). Further, the “ECHDG (2-2.5L) #2 herbicidal effect (growth inhibition grade)” value in experiment [2] was 2 (Growth inhibition effect is equal to or greater than 30%, and less than 50%).

Consider `CCCOc1cc(Cl)c(CS(=O)(=O)c2ncc(Cl)s2)c(Cl)c1` [Compound 1C-110], for which the “ECHDG #1 herbicidal effect (growth inhibition grade)” value in experiment [1] is 5 (Growth inhibition effect is equal to or greater than 90%, or complete withering is achieved). Further, the “MONVA #1 herbicidal effect (growth inhibition grade)” value in the experiment with Monochoria vaginalis is listed as 5 (Growth inhibition effect is equal to or greater than 90%, or complete withering is achieved). The “SCIJU #1 herbicidal effect (growth inhibition grade)” value with Scirpus juncoides is listed as 5 (Growth inhibition effect is equal to or greater than 90%, or complete withering is achieved). Also, the “CYMIC #1 herbicidal effect (growth inhibition grade)” value with Cyperus microiria is listed as 5 (Growth inhibition effect is equal to or greater than 90%, or complete withering is achieved). Moreover, the “ECHDG (2-2.5L) #2 herbicidal effect (growth inhibition grade)” value in experiment [2] is given as 5 (Growth inhibition effect is equal to or greater than 90%, or complete withering is achieved).

For the compound `O=S(=O)(Cc1c(F)cc(OCCC(F)(F)F)cc1F)c1ncc(Cl)s1` [Compound 1C-117], the “ECHDG #1 herbicidal effect (growth inhibition grade)” value in experiment [1] is given as 5 (Growth inhibition effect is equal to or greater than 90%, or complete withering is achieved). Also, the “MONVA #1 herbicidal effect (growth inhibition grade)” value with Monochoria vaginalis is on record as 5 (Growth inhibition effect is equal to or greater than 90%, or complete withering is achieved). Also, in the experiment with Scirpus juncoides, the “SCIJU #1 herbicidal effect (growth inhibition grade)” value is 5 (Growth inhibition effect is equal to or greater than 90%, or complete withering is achieved). For the same compound, the “CYMIC #1 herbicidal effect (growth inhibition grade)” value with Cyperus microiria is given as 5 (Growth inhibition effect is equal to or greater than 90%, or complete withering is achieved). In addition, in experiment [2], the “ECHDG (2-2.5L) #2 herbicidal effect (growth inhibition grade)” value was 4 (Growth inhibition effect is equal to or greater than 70%, and less than 90%).

With `COCOc1cc(Cl)c(CS(=O)(=O)c2ncc(Cl)s2)c(Cl)c1` [Compound 1C-119], the “ECHDG #1 herbicidal effect (growth inhibition grade)” value in experiment [1] is listed as 5 (Growth inhibition effect is equal to or greater than 90%, or complete withering is achieved). The “MONVA #1 herbicidal effect (growth inhibition grade)” value with Monochoria vaginalis is reported as 5 (Growth inhibition effect is equal to or greater than 90%, or complete withering is achieved). For the same compound, in the experiment with Scirpus juncoides, the “SCIJU #1 herbicidal effect (growth inhibition grade)” value is given as 5 (Growth inhibition effect is equal to or greater than 90%, or complete withering is achieved). Moreover, the “CYMIC #1 herbicidal effect (growth inhibition grade)” value with Cyperus microiria is on record as 5 (Growth inhibition effect is equal to or greater than 90%, or complete withering is achieved). Moreover, the “ECHDG (2-2.5L) #2 herbicidal effect (growth inhibition grade)” value in experiment [2] is 4 (Growth inhibition effect is equal to or greater than 70%, and less than 90%).

Consider `O=S(=O)(Cc1c(Cl)cccc1OCC(F)(F)F)c1ncc(Br)s1` [Compound 1C-161, 5-bromo-2-{[2-(2,2,2-trifluoroethoxy)-6-chlorophenyl][methanesulfonyl]}-1,3-thiazole], for which the “ECHDG #1 herbicidal effect (growth inhibition grade)” value in experiment [1] is on record as 5 (Growth inhibition effect is equal to or greater than 90%, or complete withering is achieved). Further, the “SCIJU #1 herbicidal effect (growth inhibition grade)” value in the experiment on Scirpus juncoides is 5 (Growth inhibition effect is equal to or greater than 90%, or complete withering is achieved). Moreover, the “ECHDG (2-2.5L) #2 herbicidal effect (growth inhibition grade)” value in experiment [2] was 5 (Growth inhibition effect is equal to or greater than 90%, or complete withering is achieved). Moreover, the inhibition at 2000 g/ha with Digitaria ciliaris was no less than 50%.

Consider `O=S(=O)(Cc1ccccc1F)c1ncc(Cl)s1` [comparative compound A, reference compound], for which, in experiment [2], the inhibition at 200 g/ha lay in the range of 10 to 30%. In addition, the inhibition at 2000 g/ha with Digitaria ciliaris fell in the range of 30 to 50%.

Take `O=S(=O)(Cc1ccccc1Cl)c1ncc(Cl)s1` [comparative compound B, reference compound]: the inhibition at 200 g/ha in experiment [2] lay in the range of 30 to 50%. In addition, the inhibition at 2000 g/ha in the experiment on Digitaria ciliaris lay within 30 to 50%.
